# Measured values as given in US20050089571A1, “Pharmaceutical formulation for the active ingredient budesonide” (ROEHM GMBH & CO.KG, priority 2002, published 2005).
# Test: Release test for budesonide, USP XXIII <711> Dissolution, apparatus 2 (paddle), 100 revolutions/min
# Format: physicochemical
# Method: The release test for budesonide is carried out in accordance with USP XXIII monograph <711> “Dissolution” with apparatus 2 (paddle) with 100 revolutions/min in phosphate buffer of pH 7.5 according to the monograph “Intestinal Fluid, Simulated, TS” without addition of pepsin or in purified water with the paddle at 100 revolutions/min with 500 ml of dissolving medium. 400 mg of sample were weighed for each determination. Detection took place by means of HPLC with a PP 18 column, 10 cm (Phenomenex) and UV detection at 246 nm. Equipment: pump L 7000 100 (from Merck-Hitachi, Darmstadt, Germany), autosampler L 7000 200 (from Merck-Hitachi, Darmstadt, Germany) UV/VIS detector L 4250 (from Merck-Hitachi, Darmstadt, Germany). The volume injected was 100 μl, and the flow rate was 1 ml/min. The retention times averaged 2.5 min. At the end of the test, the pellets were homogenized with an Ultra Turrax for 10 min. The content was used as 100% value in the calculation. 3 to 6 tests were carried out for each medium.
# The pellets release the active ingredient under the indicated conditions in vitro as described below. At the end of the test, the pellets were homogenized using an Ultra Turrax for 10 min, and the budesonide concentration in the solution was again determined. The latter measurement was used as 100% value (theoretically possible budesonide content in the solution) in the calculation.
compound,measurement,setting,value
"CCCC1O[C@@H]2C[C@H]3[C@@H]4CCC5=CC(=O)C=C[C@]5(C)[C@H]4[C@@H](O)C[C@]3(C)[C@]2(C(=O)CO)O1 (stereo partly shown) [Example 1, budesonide]","Release in purified water and phosphate buffer of pH 7.5, Mean",time 0 min,0.0 % of theory
same,"Release in purified water and phosphate buffer of pH 7.5, Mean",time 60 min,ca. 3.7 % of theory
same,"Release in purified water and phosphate buffer of pH 7.5, Mean",time 120 min,ca. 5.4 % of theory
same,"Release in purified water and phosphate buffer of pH 7.5, Mean",time 180 min,ca. 7.1 % of theory
